Results on 5 molecules are retold here after US20200016130A1, “Methods of Diagnosing and Treating Small Cell Lung Cancer Using Polo-Like Kinase 1 (PLK1) Inhibitors” (Emory University, priority 2017, published 2020).

One series deals with A549 NSCLC cell line. As to the kind of experiment: In vitro cytotoxicity before and after shRNA knockdown of TP53 in A549. Type of series: cell-based. The conditions noted are these: compared to parental and vector-treated controls. As for the experimental part: (§1) Whether depletion of endogenous wild type P53 and enforced expression of active P53 mutant would alter cancer cell line sensitivity to PLK1 inhibitor was evaluated. Due to low transfection efficiency in SCLC cell lines, established NSCLC cell line models were relied on to interrogate PLK1 activity following TP53 gene modulation. In vitro cytotoxicity of PLK1 inhibitors were compared before and after shRNA knockdown of TP53 in H292 and A549. In these cell lines with wild type TP53, there was increased sensitivity to PLK1 inhibitors following shRNA knockdown in comparison to parent cells and vector treated controls (FIG. 4). We also evaluated PLK1 inhibitor activity in p53−/− H1299 cells following enforced expression of active mutant forms of TP53. There was reduced sensitivity of the mutant-bearing cell lines compared to parental p53−/− cells (FIG. 5).

The subject of a further series is H187 SCLC cell line. As to the kind of experiment: In vitro cytotoxicity, low throughput MTS assay, H187. The format is cell-based.
Another series has as its system H209 SCLC cell line. The experiment in a line: In vitro cytotoxicity, low throughput MTS assay, H209. The format is cell-based. The conditions noted are these: Homo sapiens, NCI-H209, TP53 c.673-2A > T, read-out: IC50 (nM), cell line sensitivity to volasertib.
A further series relates to DMS153 SCLC cell line. As to the kind of experiment: In vitro cytotoxicity, low throughput MTS assay, DMS153. Type of series: cell-based. The conditions noted are these: Homo sapiens, DMS-153, TP53 c.463A > C, read-out: IC50 (nM), cell line sensitivity to volasertib.
The next series has as its system H69 SCLC cell line. As to the kind of experiment: In vitro cytotoxicity, low throughput MTS assay, H69. The format is cell-based. The conditions noted are these: TP53 c.511G > T, concurrent hemizygous deletion, read-out: IC50 (nM), cell line sensitivity to volasertib.
The subject of series [1] is H526 SCLC cell line xenograft. The experiment in a line: Subcutaneous xenograft model of H526 SCLC cell line. The format is in vivo, athymic (nu/nu) mice. To be noted: volasertib 30 mg/kg i.p. weekly; p<0.003. As for the experimental part: To establish whether the promising in vitro activity of these PLK1 inhibitors translates into antitumor efficacy in vivo. The activity of PLK1 inhibitors were compared to that of approved drugs currently employed in the management of SCLC. The in vivo efficacy of volasertib (30 mg/kg i.p. weekly), cisplatin (3 mg/kg i.p. weekly) and irinotecan (25 mg/kg i.p. weekly) was tested, using a subcutaneous xenograft model of the H526 cell line, the most sensitive cell line from our in vitro screen (FIG. 2). Tumor xenografts were established in 6-week old athymic (nu/nu) mice using H526 cells (1-2×10^7) suspended in serum-free medium mixed with Matrigel™ solution and injected subcutaneously into the flank region of nude mice. Treatment began in groups of tumor-bearing mice (approximately 6 mice per group) matched for body weight and tumor volume when the tumors achieved a volume of approximately 100 mm^3.

The next series has as its system DMS53 SCLC cell line. As to the kind of experiment: In vitro cytotoxicity, low throughput MTS assay, DMS53. The conditions noted are these: Homo sapiens, DMS-53, TP53 c.722C > T, read-out: IC50 (nM), cell line sensitivity to volasertib. Type of series: cell-based.
Series [2] deals with panel of SCLC cell lines (DMS53, DMS114, DMS153, H146, H209, H69, H128, H187, H526). As to the kind of experiment: Agnostic cytotoxicity screening of targeted agents in panel of SCLC cell lines (MTS assay). To be noted: for IC50 concentration / activity against SCLC cell lines (in words) / In vitro activity versus a priori threshold (submicromolar in vitro cytotoxicity): panel of SCLC cell lines; for In vitro activity versus a priori threshold (submicromolar in vitro cytotoxicity): MTS assay.
Procedure: (§2) An agnostic screening approach was employed by evaluating in vitro cytotoxicity of biologically targeted agents that have not been previously evaluated in SCLC clinical trials. […] The cytotoxicity of 10 different targeted agents was determined in a panel of genomically annotated SCLC cell lines by low throughput MTS assay. Inhibitors of the bromodomain, HSP90, CDK2, MEK, PIK3CA and PLK1 were tested in a panel of SCLC cell lines (DMS53, DMS114, DMS153, H146, H209, H69, H128, H187, H526) well characterized for genetic alterations and expression profiles.

A further series deals with H292 NSCLC cell line. As to the kind of experiment: In vitro cytotoxicity before and after shRNA knockdown of TP53 in H292. Type of series: cell-based. The conditions noted are these: compared to parental and vector-treated controls. As for the experimental part:
as §1

The subject of a further series is DMS114 SCLC cell line. As to the kind of experiment: In vitro cytotoxicity, low throughput MTS assay, DMS114. The conditions noted are these: Homo sapiens, DMS-114, TP53 c.637C > T, concurrent hemizygous deletion, read-out: IC50 (nM), cell line sensitivity to volasertib. The format is cell-based.
Another series concerns H146 SCLC cell line. As to the kind of experiment: In vitro cytotoxicity, low throughput MTS assay, H146. The format is cell-based. To be noted: Homo sapiens, NCI-H146, TP53 wild type, read-out: IC50 (nM), cell line sensitivity to volasertib.
Series [3] has as its system TKO-005 PDX of platinum sensitive SCLC. The experiment in a line: Patient derived xenograft (PDX) model of platinum sensitive SCLC (TKO-005). The format is in vivo. The source says:
PDX models generated from SCLC patients enrolled in a recently completed translational phase II clinical trial of arsenic trioxide were employed. […] The activity of rigosertib was compared to that of cisplatin (expected to be active in a PDX from a platinum sensitive tumor) and arsenic trioxide (expected to have no efficacy based on the clinical trial outcome for the patient whose tumor biopsy was used to generate the PDX).

The subject of series [4] is panel of SCLC cell lines (DMS53, DMS114, DMS153, H146, H209, H69, H128, H187, H526).
Procedure: as §2

Structures are written as SMILES. “Also recorded” adds a separate entry of the source. Read-outs that look alike come from different tables or passages of the source.

Procedure for DMS114 SCLC cell line: (§3) The cytotoxicity of 10 different targeted agents was determined in a panel of genomically annotated SCLC cell lines by low throughput MTS assay. Inhibitors of the bromodomain, HSP90, CDK2, MEK, PIK3CA and PLK1 were tested in a panel of SCLC cell lines (DMS53, DMS114, DMS153, H146, H209, H69, H128, H187, H526) well characterized for genetic alterations and expression profiles.
Procedure for DMS153 SCLC cell line: as §2
Procedure for DMS53 SCLC cell line: as §2
Procedure for H146 SCLC cell line: as §2
Procedure for H187 SCLC cell line: as §2
Procedure for H209 SCLC cell line: as §3
Procedure for H69 SCLC cell line: as §3

With `CC[C@@H]1C(=O)N(C)c2cnc(Nc3ccc(C(=O)N[C@H]4CC[C@H](N5CCN(CC6CC6)CC5)CC4)cc3OC)nc2N1C(C)C` [volasertib], the “Sensitivity to PLK1 inhibitor after shRNA knockdown of TP53” value (“Sensitivity to PLK1 inhibitor” for short) in the series on A549 NSCLC cell line and in the series on H292 NSCLC cell line was “sensitized” in each case. In the series on H187 SCLC cell line (BI6727 concentration of 0.01 nM and higher), the Surviving viable cells entry is reported as “no surviving viable cells”. Also, the IC50 turned out to be 0.004 nM in the series on H187 SCLC cell line (Homo sapiens, NCI-H187, TP53 c.722C > G, concurrent hemizygous deletion, read-out: IC50 (nM), cell line sensitivity to volasertib); 0.057 nM with H209 SCLC cell line; 0.672 nM in the series with DMS153 SCLC cell line; 0.018 nM with H69 SCLC cell line; 0.118 nM in the series on DMS53 SCLC cell line; 0.25 nM in series [2] (read-out: mean IC50 concentration, less sensitive SCLC cell lines). Also, the IC50 in [2] (read-out: mean IC50 concentration, more sensitive SCLC cell lines) stood at 0.03 nM; in the series with DMS114 SCLC cell line, 0.092 nM; with H146 SCLC cell line, 0.163 nM. In addition, the “Tumor growth inhibition relative to control” value in series [1] is recorded as “significant tumor growth inhibition”. The “IC50 concentration / activity against SCLC cell lines (in words)” value in series [2] is given as “picomolar IC50 concentration; also recorded: low nanomolar to picomolar activity”. In addition, in series [2], the “In vitro activity versus a priori threshold (submicromolar in vitro cytotoxicity)” value is listed as “met the a priori threshold of activity”.

On to `N.N.[Cl][Pt][Cl]` [cisplatin], for which, in series [3], the “Tumor growth inhibition compared to vehicle” value is listed as “comparable efficacy”.

Regarding `CCc1cnn2c(NCc3ccc[n+]([O-])c3)cc(N3CCCC[C@H]3CCO)nc12` [SCH727965], the “In vitro activity versus a priori threshold (submicromolar in vitro cytotoxicity)” value in [4] is on record as “met the a priori threshold of activity”.

For the molecule `CCNC(=O)c1noc(-c2cc(C(C)C)c(O)cc2O)c1-c1ccc(CN2CCOCC2)cc1` [AUY922], the “In vitro activity versus a priori threshold (submicromolar in vitro cytotoxicity)” value in series [4] was “met the a priori threshold of activity”.

For `COc1cc(OC)c(/C=C/S(=O)(=O)Cc2ccc(OC)c(NCC(=O)O)c2)c(OC)c1` [rigosertib], the “Sensitivity to PLK1 inhibitor” value in the series with A549 NSCLC cell line is on record as “sensitized”. Moreover, in series [3], the “Tumor growth inhibition compared to vehicle” value is “significant tumor growth inhibition comparable to cisplatin” and the “Tumor weight compared to vehicle” value was “reduced tumor weight”. Further, in [2], the “IC50 concentration / activity against SCLC cell lines (in words)” value was “picomolar IC50 concentration; also recorded: low nanomolar to picomolar activity” and the “In vitro activity versus a priori threshold (submicromolar in vitro cytotoxicity)” value is recorded as “met the a priori threshold of activity”. The “Sensitivity to PLK1 inhibitor” value with H292 NSCLC cell line is given as “sensitized”.
